{"source": "patent US9943844B2", "about": "“Microfluidic evaluation system for evaluating the efficacy of an antiperspirant product and associated method” (L'OREAL, priority 2013, dated 2018)", "key": {"[1]": {"assay": "Microfluidic evaluation of antiperspirant efficacy: clog formation at the confluence of secondary (sweat) channel and main channel, seen by phase contrast microscopy", "from_the_text": "The invention also has for object a method for evaluating the efficacy of an antiperspirant product comprising the following steps: • supplying an evaluation system 1 such as described hereinabove; • injecting natural and/or artificial sweat into the or each secondary channel 9 of the microfluidic chip 5 from the sweat source 3; • injecting at least one antiperspirant product into the main channel 7; • determining at least one physical-chemical parameter that represents the efficacy of the antiperspirant agent considered; and • evaluating the efficacy of the antiperspirant product using the determined physical-chemical parameter.\nThe step of filling is followed by a step of distributing, during which the antiperspirant product flowing in the main channel 7 and the sweat flowing in the secondary channel or channels 9 react together, in particular on the zones of confluence between the sweat flowing in the secondary channel or channels 9 and the antiperspirant product flowing in the main channel 7. According to the efficacy of the antiperspirant product, during this step of distributing, the interaction between the sweat and the antiperspirant product leads to the formation of clogs at the outlet 25 of the secondary channel or channels 9.\nThese values can in particular be Boolean values. For example, the physical-chemical parameter measured is the formation or not of a clog, and it is concluded that the antiperspirant product tested is effective if the formation of a clog is observed during the method. If no formation of a clog is observed, non-efficacy is concluded for the antiperspirant product.\nThese tests were conducted with the microfluidic chip 4 described hereinabove, and by using as imaging tool 45 a phase contrast microscope.\nThe injection of the sweat and of the antiperspirant product was carried out according to the sequence described in the table 1.\nIt is considered that the antiperspirant product is not effective when no clog is formed in the secondary channel 9. In this case, the sweat of the secondary channel 9 can freely flow in the main channel 7."}, "[2]": {"conditions": "cited from earlier work"}}, "note": "Like-named read-outs stand apart in the source and are kept apart here."}
{"substance": "aluminum chlorohydrate [ACH]", "values": [{"measurement": "Evaluation result", "setting": "[1]; concentration 5%, injection sequence of table 1, effective = formation of a clog in secondary channel preventing sweat flow, not effective = no clog formed", "result": "Effective"}, {"measurement": "Evaluation result", "setting": "[1]; concentration 15%, injection sequence of table 1, effective = formation of a clog in secondary channel preventing sweat flow, not effective = no clog formed", "result": "Effective"}, {"measurement": "antiperspirant efficacy in vivo", "setting": "[2]; known to be (not) effective antiperspirant agent in vivo", "result": "effective"}]}
{"substance": "Aluminum Zirconium Glycine [AZG]", "values": [{"measurement": "Evaluation result", "setting": "[1]", "result": "Effective"}, {"measurement": "antiperspirant efficacy in vivo", "setting": "[2]; in vivo", "result": "effective"}]}
